One data set deals with EBV. Briefly: Inhibition of EBV production in H1 cells (bioassay, EBV DP activity in superinfected Raji cells). The data set is classed as cell-based. Conditions: for IC90: human gammaherpesvirus 4, Raji, 120 h. As to the method:
(§1) H1 cells were maintained in […] growth for two days prior to the initiation of treatment. The cells were centrifuged at 600 g for 10 min. at room temperature to separate them from the medium containing pre-existing virus particles. The H1 cells were seeded in 24 well plates at a density of 1×10^5 cells per well in 2 ml of fresh medium with or without drug and incubated at 37° C. for 5 days. The medium containing virion was saved and used for evaluating the inhibitory effect of drugs on virus production and infectivity by use of a bioassay. The virion were pelleted from the cell free medium by centrifugation at 45,000 rpm for 90 min. in a SW-50 Ti rotor (Beckman). The virion were resuspended in 1 ml growth medium and then used to infect 1×10^6 Raji cells for 48 hours. Since the level of EBV DP activity in Raji cells post superinfection is proportional to the number of virions added (unpublishedresult), the EBV specific DP activity induced was able to be measured. The inhibitory drug effect Was calculated by comparing the EBV DP activity to multiple dilution controls.
Inhibitory effect of compounds on EBV: The CD50 was performed by
exposing H1 cells to different concentrations of the compounds in normal
growth medium at 37° C. for 72 hours; the cells were then counted
and compared with controls. H1 cells were treated for 5 days and the
ID90 was determined by bioassay.

The nature of data set [1]: Cytotoxicity in H1 cells (cell count). As to conditions: 37° C., read-out: CD50. Format: cell-based.
A short description of data set [2]: Cytotoxicity in MT2 cells (CD50). Format: cell-based. As to conditions: human.
Data set [3] is described as follows: Cytotoxicity (CD50) of Table I, cell line not given. Format: cell-based.
For a further data set, the system named is HBV. Briefly: Inhibition of HBV DNA in 2.2.15 cells (Southern analysis). The data set is classed as cell-based, HBV (human hepatoma 2.2.15 cells). Conditions: for Therapeutic Index (DC50/ID50): HBV, CD50 / anti-HBV ID50; for IC50: Hepatitis B virus, 144 h, 2.2.15 cells, 6-day treatment, 50% inhibition of the DNA, read-out: Anti-HBV Activity ID50. As to the method:
Human hepatoma cells with HBV (2.2.15 cells) were used in the assay. These cells were grown to confluence in minimal essential medium with 10% fetal bovine serum. The media was changed at 3-day intervals. At confluence the treatment with the drugs was initiated and then continued for three days. Another addition of the same concentration of the drug was given at this point after removal of the media from the cultures and cultures maintained for an additional period of 3 days. The medium after the 6-day treatment was harvested and the viral particles precipitated by the polyethylene glycol method. The particles were subsequently digested and then processed for Southern analysis. The blots were hybridizied to an HBV-specific probe and vital DNA amounts assessed in comparison to DNA levels from cultures not treated with the drugs. The genomic DNA was digested with Hind III and subjected to Southern analysis. Levels of the episomal DNA were determined in relation to the integrated HBV DNA. The drug concentrations that cause 50% inhibition of the DNA (ID50) as compared to the controls were calculated.

Data set [4] in a line: Cytotoxicity in CEM cells (CD50). Format: cell-based. Conditions: human.
The next data set relates to mitochondrial DNA. Briefly: Mitochondrial DNA content in H1 cells (slot blot assay). Format: cell-based, human. As to conditions: 1 mM, 6 days. As for the experimental part: as §1
Slot Blot Assay--The amount of mitochondrial DNA was measured by the slot blot method (2). […] The amount of mitochondrial DNA in the treated and non-treated H1 cells was quantified by densitometer (LKB Ultroscan XL).

Setting [5] is: EBV, H1 cells treated for 5 days, bioassay, read-out: ID90 (the source's name).

Results on nine compounds are retold here after patent US5567688A, “L-nucleosides for the treatment of hepatitis B-virus” (priority 1995, dated 1996).

Molecules are shown by their SMILES. Where two headings read alike, the source gives them in different places.

For `CCc1cn([C@H]2O[C@@H](CO)[C@H](O)[C@H]2F)c(=O)[nH]c1=O` [L-FEAU, N1-(2'-Deoxy-2'-fluoro-β-L-arabinofuranosyl)-5-ethyluracil], in the data set on EBV (EBV, H1 cells), the “Therapeutic Index (CD50/ID90)” value is listed as 20. Moreover, the IC90 in the data set with EBV (read-out: ID90) worked out at 20 µM. Further, the CC50 at 72 h in data set [1] is greater than 400 µM. Also, the results for the CC50 in data set [2], in data set [3] and in data set [4] were 100 µM, greater than 400 µM and greater than 100 µM, respectively. Besides, the “Therapeutic Index (DC50/ID50)” value in the data set with HBV is given as greater than 80. Moreover, the IC50 in the data set on HBV was greater than 5 µM.

In the case of `O=C(O)P(=O)(O)O` [PFA], the IC90 in the data set on EBV (setting [5]) was 75 ± 5 µM.

Consider `CCc1cn([C@@H]2O[C@H](CO)[C@@H](O)[C@@H]2F)c(=O)[nH]c1=O` [D-FEAU], for which the “Therapeutic Index (CD50/ID90)” value in the data set with EBV (EBV, H1 cells) was greater than 400. Also, in the data set on EBV (setting [5]), the IC90 came to 1 µM. In data set [1], the CC50 at 72 h is greater than 400 µM. Besides, the CC50 in data set [2] was 100 µM; in data set [3], greater than 400 µM; in data set [4], 90 µM. For the same compound, in the data set on HBV, the “Therapeutic Index (DC50/ID50)” value is given as greater than 80. Further, the IC50 in the data set on HBV was found to be 5 µM.

As for `Nc1nc2c(ncn2CCC(CO)CO)c(=O)[nH]1` [PCV], the IC90 in the data set with EBV (setting [5]) came to 20 ± 2 µM.

For `Nc1nc2c(ncn2COCCO)c(=O)[nH]1` [ACV], in the data set on EBV (setting [5]), the IC90 worked out at 50 ± 8 µM.

Take `Nc1nc(=O)n([C@H]2O[C@@H](CO)[C@H](O)[C@H]2F)cc1I` [L-FIAC, N1-(2'-Deoxy-2'-fluoro-β-L-arabinofuranosyl)-5-iodocytosine]: the “Inhibitory effect on EBV (in words)” value with EBV (EBV, H1 cells, up to 100 μM) is recorded as “inactivity up to 100 μM”.

In the case of `Cc1cn([C@@H]2O[C@H](CO)[C@@H](O)[C@@H]2F)c(=O)[nH]c1=O` [D-FMAU], the “Therapeutic Index (CD50/ID90)” value with EBV (EBV, H1 cells) was less than 100. The IC90 in the data set on EBV (setting [5]) worked out at 0.1 µM. Also, in data set [1], the CC50 at 72 h was less than 10 µM. For the same compound, the CC50 in data set [2] is 8 to 9 µM; in data set [3] it was less than 10 µM; in data set [4], 10 µM. The “Therapeutic Index (DC50/ID50)” value in the data set on HBV was less than 5.

Consider `Nc1nc2c(ncn2COC(CO)CO)c(=O)[nH]1` [DHPG], for which the IC90 in the data set with EBV (setting [5]) came to 5 ± 1 µM.

For `Cc1cn([C@H]2O[C@@H](CO)[C@H](O)[C@H]2F)c(=O)[nH]c1=O` [L-FMAU, N1-(2'-Deoxy-2'-fluoro-β-L-arabinofuranosyl)-thymine], in the data set with mitochondrial DNA, the “Inhibition of mitochondrial DNA content in H1 cells” value is given as “No inhibition”. The “Therapeutic Index (CD50/ID90)” value in the data set on EBV (EBV, H1 cells) turned out to be 182. Also, the IC90 in the data set with EBV (setting [5]) came to 5 ± 0.8 µM. In data set [1], the CC50 at 72 h came to 913 ± 70 µM. Besides, the CC50 in data set [2] is 100 µM; in data set [3] it was 913 ± 70 µM; in data set [4], greater than 100 µM. Moreover, the “Therapeutic Index (DC50/ID50)” value in the data set with HBV is on record as 9130.
